Legend:
Assay in all cases: relative viability (nuclei count vs DMSO), 5 days (fraction); higher = more cells survive
[1] = test system: 201T
In short: (§1)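 Dosing by pin tool came one day after lung cancer cell lines were seeded in 1536-well plates, using either one drug or a fixed anchor-drug dose plus five library-drug doses (not always all listed) in √10 steps. After 5 days, nuclei were counted on 4× images. Relative viability is treated-well nuclei count divided by vehicle-well nuclei count, and values are medians of duplicate plates.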

[2] = test system: ABC-1
In short: as §1

[3] = test system: BEN
In short: as §1

[4] = test system: CAL-12T
In short: as §1

[5] = test system: COR-L 105
In short: as §1

[6] = test system: COR-L23
In short: as §1

[7] = test system: EKVX
In short: as §1

[8] = test system: HARA
In short: as §1

[9] = test system: HCC-366
In short: as §1

[10] = test system: LK-2
In short: as §1

[11] = test system: LU99A
In short: as §1

[12] = test system: NCI-H1437
In short: as §1

[13] = test system: NCI-H1650
In short: as §1

[14] = test system: NCI-H1666
In short: as §1

[15] = test system: NCI-H2009
In short: as §1

[16] = test system: NCI-H2170
In short: as §1

[17] = test system: NCI-H3122
In short: as §1

[18] = test system: NCI-H661
In short: as §1

[19] = test system: NCI-H727
In short: as §1

[20] = test system: NCI-H838
In short: as §1

[21] = test system: PC-14
In short: as §1

[22] = test system: NCI-H441
In short: as §1

CC1(C)CCC(c2ccc(Cl)cc2)=C(CN2CCN(c3ccc(C(=O)NS(=O)(=O)c4ccc(N[C@H](CCN5CCOCC5)CSc5ccccc5)c(S(=O)(=O)C(F)(F)F)c4)cc3)CC2)C1 [Navitoclax] + CS(=O)(=O)CCNCc1ccc(-c2ccc3ncnc(Nc4ccc(OCc5cccc(F)c5)c(Cl)c4)c3c2)o1 [Lapatinib] (partner 2 µM)
relative viability ([1]; first compound 0.005 µM): 1.06
relative viability ([1]; first compound 0.01581 µM): 1.12
relative viability ([1]; first compound 0.05 µM): 0.992
relative viability ([1]; first compound 0.1581 µM): 1.03
relative viability ([1]; first compound 0.5 µM): 1.06
relative viability ([2]; first compound 0.005 µM): 1.1
relative viability ([2]; first compound 0.01581 µM): 1.46
relative viability ([2]; first compound 0.05 µM): 1.09
relative viability ([2]; first compound 0.1581 µM): 1.19
relative viability ([2]; first compound 0.5 µM): 1.05
relative viability ([3]; first compound 0.005 µM): 0.718
relative viability ([3]; first compound 0.01581 µM): 0.596
relative viability ([3]; first compound 0.05 µM): 0.772
relative viability ([3]; first compound 0.1581 µM): 0.714
relative viability ([3]; first compound 0.5 µM): 0.647
relative viability ([4]; first compound 0.005 µM): 0.751
relative viability ([4]; first compound 0.01581 µM): 0.504
relative viability ([4]; first compound 0.05 µM): 0.589
relative viability ([4]; first compound 0.1581 µM): 0.738
relative viability ([4]; first compound 0.5 µM): 0.637
relative viability ([5]; first compound 0.005 µM): 0.335
relative viability ([5]; first compound 0.01581 µM): 0.407
relative viability ([5]; first compound 0.05 µM): 0.307
relative viability ([5]; first compound 0.1581 µM): 0.282
relative viability ([5]; first compound 0.5 µM): 0.333
relative viability ([6]; first compound 0.005 µM): 0.919
relative viability ([6]; first compound 0.01581 µM): 1.25
relative viability ([6]; first compound 0.05 µM): 1.33
relative viability ([6]; first compound 0.1581 µM): 0.705
relative viability ([6]; first compound 0.5 µM): 0.922
relative viability ([7]; first compound 0.005 µM): 0.233
relative viability ([7]; first compound 0.01581 µM): 0.21
relative viability ([7]; first compound 0.05 µM): 0.161
relative viability ([7]; first compound 0.1581 µM): 0.206
relative viability ([7]; first compound 0.5 µM): 0.206
relative viability ([8]; first compound 0.005 µM): 0.686
relative viability ([8]; first compound 0.01581 µM): 1
relative viability ([8]; first compound 0.05 µM): 0.799
relative viability ([8]; first compound 0.1581 µM): 0.728
relative viability ([8]; first compound 0.5 µM): 1
relative viability ([9]; first compound 0.005 µM): 1
relative viability ([9]; first compound 0.01581 µM): 1.16
relative viability ([9]; first compound 0.05 µM): 0.348
relative viability ([9]; first compound 0.1581 µM): 1.04
relative viability ([9]; first compound 0.5 µM): 1.08
relative viability ([10]; first compound 0.005 µM): 0.802
relative viability ([10]; first compound 0.01581 µM): 1.08
relative viability ([10]; first compound 0.05 µM): 1.04
relative viability ([10]; first compound 0.1581 µM): 0.886
relative viability ([10]; first compound 0.5 µM): 1.05
relative viability ([11]; first compound 0.005 µM): 0.985
relative viability ([11]; first compound 0.01581 µM): 1.19
relative viability ([11]; first compound 0.05 µM): 0.977
relative viability ([11]; first compound 0.1581 µM): 1.04
relative viability ([11]; first compound 0.5 µM): 1.07
relative viability ([12]; first compound 0.005 µM): 0.729
relative viability ([12]; first compound 0.01581 µM): 0.759
relative viability ([12]; first compound 0.05 µM): 0.822
relative viability ([12]; first compound 0.1581 µM): 0.819
relative viability ([12]; first compound 0.5 µM): 0.831
relative viability ([13]; first compound 0.005 µM): 0.818
relative viability ([13]; first compound 0.01581 µM): 1.07
relative viability ([13]; first compound 0.05 µM): 0.88
relative viability ([13]; first compound 0.1581 µM): 1.02
relative viability ([13]; first compound 0.5 µM): 0.957
relative viability ([14]; first compound 0.005 µM): 0.584
relative viability ([14]; first compound 0.01581 µM): 0.694
relative viability ([14]; first compound 0.05 µM): 0.524
relative viability ([14]; first compound 0.1581 µM): 0.579
relative viability ([14]; first compound 0.5 µM): 0.425
relative viability ([15]; first compound 0.005 µM): 0.938
relative viability ([15]; first compound 0.01581 µM): 1.14
relative viability ([15]; first compound 0.05 µM): 0.953
relative viability ([15]; first compound 0.1581 µM): 0.9
relative viability ([15]; first compound 0.5 µM): 0.998
relative viability ([16]; first compound 0.005 µM): 0.275
relative viability ([16]; first compound 0.01581 µM): 0.283
relative viability ([16]; first compound 0.05 µM): 0.312
relative viability ([16]; first compound 0.1581 µM): 0.285
relative viability ([16]; first compound 0.5 µM): 0.26
relative viability ([17]; first compound 0.005 µM): 0.998
relative viability ([17]; first compound 0.01581 µM): 0.991
relative viability ([17]; first compound 0.05 µM): 1.03
relative viability ([17]; first compound 0.1581 µM): 0.892
relative viability ([17]; first compound 0.5 µM): 1.02
relative viability ([18]; first compound 0.005 µM): 0.542
relative viability ([18]; first compound 0.01581 µM): 0.613
relative viability ([18]; first compound 0.05 µM): 0.484
relative viability ([18]; first compound 0.1581 µM): 0.504
relative viability ([18]; first compound 0.5 µM): 0.391
relative viability ([19]; first compound 0.005 µM): 0.925
relative viability ([19]; first compound 0.01581 µM): 1.01
relative viability ([19]; first compound 0.1581 µM): 0.982
relative viability ([19]; first compound 0.5 µM): 0.657
relative viability ([20]; first compound 0.005 µM): 0.921
relative viability ([20]; first compound 0.01581 µM): 1.16
relative viability ([20]; first compound 0.05 µM): 1.29
relative viability ([20]; first compound 0.1581 µM): 0.97
relative viability ([20]; first compound 0.5 µM): 1.03
relative viability ([21]; first compound 0.005 µM): 0.343
relative viability ([21]; first compound 0.01581 µM): 0.343
relative viability ([21]; first compound 0.05 µM): 0.283
relative viability ([21]; first compound 0.1581 µM): 0.385
relative viability ([21]; first compound 0.5 µM): 0.338

O=C(O)c1ccc(-c2c[nH]c3ncc(-c4ccccc4)cc23)cc1C1CCCC1 + CC(C)C[C@H](NC(=O)[C@H](Cc1ccccc1)NC(=O)c1cnccn1)B(O)O [Bortezomib] (partner 0.002 µM)
relative viability ([1]; first compound 0.04 µM): 1.08
relative viability ([1]; first compound 0.1265 µM): 1.08
relative viability ([1]; first compound 0.4 µM): 1.12
relative viability ([1]; first compound 1.265 µM): 1.02
relative viability ([2]; first compound 0.04 µM): 0.264
relative viability ([2]; first compound 0.1265 µM): 0.299
relative viability ([2]; first compound 0.4 µM): 0.274
relative viability ([2]; first compound 1.265 µM): 0.251
relative viability ([3]; first compound 0.04 µM): 0.721
relative viability ([3]; first compound 0.1265 µM): 0.778
relative viability ([3]; first compound 0.4 µM): 0.907
relative viability ([3]; first compound 1.265 µM): 0.796
relative viability ([4]; first compound 0.04 µM): 0.911
relative viability ([4]; first compound 0.1265 µM): 1.17
relative viability ([4]; first compound 0.4 µM): 0.883
relative viability ([4]; first compound 1.265 µM): 0.792
relative viability ([5]; first compound 0.04 µM): 0.775
relative viability ([5]; first compound 0.1265 µM): 0.78
relative viability ([5]; first compound 0.4 µM): 0.788
relative viability ([5]; first compound 1.265 µM): 0.819
relative viability ([6]; first compound 0.04 µM): 0.962
relative viability ([6]; first compound 0.1265 µM): 1.16
relative viability ([6]; first compound 0.4 µM): 0.906
relative viability ([6]; first compound 1.265 µM): 0.622
relative viability ([7]; first compound 0.04 µM): 1.01
relative viability ([7]; first compound 0.1265 µM): 0.873
relative viability ([7]; first compound 0.4 µM): 1.03
relative viability ([7]; first compound 1.265 µM): 0.728
relative viability ([8]; first compound 0.04 µM): 1.05
relative viability ([8]; first compound 0.1265 µM): 1.28
relative viability ([8]; first compound 0.4 µM): 1.1
relative viability ([8]; first compound 1.265 µM): 1.08
relative viability ([9]; first compound 0.04 µM): 1.05
relative viability ([9]; first compound 0.1265 µM): 1.12
relative viability ([9]; first compound 0.4 µM): 1.03
relative viability ([9]; first compound 1.265 µM): 1.06
relative viability ([11]; first compound 0.04 µM): 1.19
relative viability ([11]; first compound 0.1265 µM): 1.08
relative viability ([11]; first compound 0.4 µM): 1.06
relative viability ([11]; first compound 1.265 µM): 0.816
relative viability ([12]; first compound 0.04 µM): 0.523
relative viability ([12]; first compound 0.1265 µM): 0.683
relative viability ([12]; first compound 0.4 µM): 0.446
relative viability ([12]; first compound 1.265 µM): 0.238
relative viability ([13]; first compound 0.04 µM): 0.185
relative viability ([13]; first compound 0.1265 µM): 0.208
relative viability ([13]; first compound 0.4 µM): 0.205
relative viability ([13]; first compound 1.265 µM): 0.178
relative viability ([14]; first compound 0.04 µM): 0.86
relative viability ([14]; first compound 0.1265 µM): 0.813
relative viability ([14]; first compound 0.4 µM): 0.739
relative viability ([14]; first compound 1.265 µM): 0.304
relative viability ([15]; first compound 0.04 µM): 0.997
relative viability ([15]; first compound 0.1265 µM): 0.966
relative viability ([15]; first compound 0.4 µM): 0.942
relative viability ([15]; first compound 1.265 µM): 0.794
relative viability ([17]; first compound 0.04 µM): 0.976
relative viability ([17]; first compound 0.1265 µM): 1.01
relative viability ([17]; first compound 0.4 µM): 0.984
relative viability ([17]; first compound 1.265 µM): 0.986
relative viability ([22]; first compound 0.04 µM): 0.587
relative viability ([22]; first compound 0.1265 µM): 0.59
relative viability ([22]; first compound 0.4 µM): 0.246
relative viability ([22]; first compound 1.265 µM): 0.289
relative viability ([18]; first compound 0.04 µM): 0.72
relative viability ([18]; first compound 0.1265 µM): 0.791
relative viability ([18]; first compound 0.4 µM): 0.82
relative viability ([18]; first compound 1.265 µM): 0.935
relative viability ([19]; first compound 0.04 µM): 0.788
relative viability ([19]; first compound 0.1265 µM): 0.99
relative viability ([19]; first compound 0.4 µM): 0.906
relative viability ([19]; first compound 1.265 µM): 0.783
relative viability ([20]; first compound 0.04 µM): 0.814
relative viability ([20]; first compound 0.1265 µM): 1.32
relative viability ([20]; first compound 0.4 µM): 0.703
relative viability ([20]; first compound 1.265 µM): 0.714
relative viability ([21]; first compound 0.04 µM): 0.917
relative viability ([21]; first compound 0.1265 µM): 0.901
relative viability ([21]; first compound 0.4 µM): 0.891
relative viability ([21]; first compound 1.265 µM): 0.758
